Measurements reported in PubChem BioAssay (NCI).
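Protocol summary: plate cells (96-well), add compound at 5 concentrations, incubate 48 h, interpolate endpoints linearly. GI50 = concentration required for 50% inhibition of growth. TGI marks complete inhibition of growth.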

Legend:
Experiment in all cases: NCI-60 cell line screen, 48 h
[1] = system: MDA-MB-231 breast
[2] = system: MALME-3M melanoma
[3] = system: MOLT-4 leukemia
[4] = system: OVCAR-3 ovarian
[5] = system: HOP-92 NSCLC
[6] = system: NCI/ADR-RES ovarian
[7] = system: COLO 205 colon
[8] = system: HS 578T breast
[9] = system: CAKI-1 renal
[10] = system: UACC-62 melanoma
[11] = system: MDA-MB-435
[12] = system: SK-MEL-28 melanoma
[13] = system: OVCAR-4 ovarian
[14] = system: ACHN renal
[15] = system: NCI-H226 lung
[16] = system: NCI-H460 lung
[17] = system: BT-549 breast
[18] = system: SW-620 colon
[19] = system: CCRF-CEM leukemia
[20] = system: RXF 393 renal
[21] = system: SN12C renal
[22] = system: HCT-15 colon
[23] = system: HCC-2998 colon
[24] = system: LOX IMVI melanoma
[25] = system: SNB-19 CNS
[26] = system: HOP-62 NSCLC
[27] = system: OVCAR-8 ovarian
[28] = system: TK-10 renal
[29] = system: SR leukemia
[30] = system: HCT-116 colon
[31] = system: SK-MEL-2 melanoma
[32] = system: MCF7 breast
[33] = system: U251 CNS
[34] = system: HL-60(TB) leukemia
[35] = system: NCI-H522 lung
[36] = system: IGROV1 ovarian
[37] = system: UO-31 renal
[38] = system: KM12 colon
[39] = system: T-47D breast
[40] = system: PC-3 prostate
[41] = system: A498 renal
[42] = system: SNB-75 CNS
[43] = system: SF-295 CNS
[44] = system: K-562 leukemia
[45] = system: SK-MEL-5 melanoma
[46] = system: EKVX NSCLC
[47] = system: NCI-H23 lung
[48] = system: RPMI-8226 leukemia
[49] = system: SF-539 CNS
[50] = system: SK-OV-3 ovarian
[51] = system: 786-0 renal
[52] = system: M14 melanoma
[53] = system: OVCAR-5 ovarian
[54] = system: A549 NSCLC
[55] = system: SF-268 CNS
[56] = system: UACC-257 melanoma
[57] = system: HT29 colon
[58] = system: DU-145 prostate

With `O=C1c2ccccc2C(=O)c2c(NCCN=Cc3ccccc3O)cccc21` the GI50 [1] was 7.91 µM, the TGI [1] was > 80.6 µM and the GI50 [2] was 1.55 µM. For the same compound, the TGI [2] was 3.84 µM, the GI50 [3] was 3.33 µM and the TGI [3] was > 30.5 µM. It also gave a GI50 [4] of 2.38 µM, a TGI [4] of 7.92 µM and a TGI [5] of 0.0676 µM. The GI50 [6] was 10.5 µM, the TGI [6] was > 100 µM and the GI50 [7] was 1.41 µM. For the same compound, the TGI [7] was 3.82 µM, the GI50 [8] was 1.72 µM and the TGI [8] was 4.88 µM. It also gave a GI50 [9] of 0.434 µM, a TGI [9] of 2.8 µM and a GI50 [10] of 5.59 µM. It also gave a GI50 [11] of 2.51 µM, a TGI [11] of 7.4 µM and a GI50 [12] of 3.21 µM. For the same compound, the TGI [12] was 10.4 µM, the GI50 [13] was 2.79 µM and the TGI [13] was > 22.9 µM. For the same compound, the GI50 [14] was 3.4 µM, the TGI [14] was 16.3 µM and the GI50 [15] was 7.97 µM. The TGI [15] was > 38.2 µM, the GI50 [16] was 2.18 µM and the TGI [16] was 6.91 µM. It also gave a GI50 [17] of 2.81 µM, a TGI [17] of 8.51 µM and a GI50 [18] of 2.14 µM. For the same compound, the TGI [18] was 7.07 µM, the GI50 [19] was 1.43 µM and the TGI [19] was 3.88 µM. The GI50 [20] was 2.18 µM, the TGI [20] was 6.94 µM and the GI50 [21] was 8.28 µM. The TGI [21] was > 54.1 µM, the GI50 [22] was 4.03 µM and the TGI [22] was 16.7 µM. The GI50 [23] was 7.82 µM, the TGI [23] was 22.6 µM and the GI50 [24] was 3.89 µM. For the same compound, the TGI [24] was 9.63 µM, the GI50 [25] was 4.31 µM and the TGI [25] was > 54.5 µM. The GI50 [26] was 6.61 µM, the TGI [26] was 52.3 µM and the GI50 [27] was 4.93 µM. For the same compound, the TGI [27] was 22.1 µM, the GI50 [28] was 1.99 µM and the TGI [28] was 6.17 µM. For the same compound, the GI50 [29] was 0.944 µM, the TGI [29] was > 100 µM and the GI50 [30] was 3.64 µM. The TGI [30] was 15.3 µM, the GI50 [31] was 4.42 µM and the TGI [31] was 11.3 µM. It also gave a GI50 [32] of 1.57 µM, a TGI [32] of 5.27 µM and a GI50 [33] of 5.06 µM. It also gave a TGI [33] of 19.5 µM, a GI50 [34] of 0.235 µM and a TGI [34] of 3.89 µM. For the same compound, the GI50 [35] was 6.94 µM, the TGI [35] was > 25.6 µM and the GI50 [36] was 2.57 µM. It also gave a TGI [36] of 10.3 µM, a GI50 [37] of 2.51 µM and a TGI [37] of 11 µM. It also gave a GI50 [38] of 2.93 µM, a TGI [38] of 8.37 µM and a GI50 [39] of 3.46 µM. For the same compound, the TGI [39] was > 47.1 µM, the GI50 [40] was 2.18 µM and the TGI [40] was 8.1 µM. It also gave a GI50 [41] of 1.87 µM, a TGI [41] of 6.67 µM and a GI50 [42] of 2.33 µM. It also gave a TGI [42] of 7.6 µM, a GI50 [43] of 2.43 µM and a TGI [43] of 5.01 µM. The GI50 [44] was 2.47 µM, the TGI [44] was > 45.1 µM and the GI50 [45] was 1.51 µM. The TGI [45] was 5.2 µM, the GI50 [46] was 1.79 µM and the TGI [46] was 5.44 µM. The GI50 [47] was 12.4 µM, the TGI [47] was > 100 µM and the GI50 [48] was 0.714 µM. For the same compound, the TGI [48] was 2.62 µM, the GI50 [49] was 2.96 µM and the TGI [49] was 13.3 µM. The GI50 [50] was 3.54 µM, the TGI [50] was > 48.2 µM and the GI50 [51] was 6.8 µM. It also gave a TGI [51] of 37.9 µM, a GI50 [52] of 7.44 µM and a TGI [52] of 32.7 µM. For the same compound, the GI50 [53] was 14.2 µM, the TGI [53] was 99.3 µM and the GI50 [54] was 4.69 µM. The TGI [54] was 14.4 µM, the GI50 [55] was 2.7 µM and the TGI [55] was 14.9 µM. It also gave a GI50 [56] of 4.84 µM, a TGI [56] of 13.4 µM and a GI50 [57] of 2.26 µM. It also gave a GI50 [58] of 2.22 µM and a TGI [58] of 7.66 µM.
